# Data reported in PMC6691826, “1D NMR WaterLOGSY as an efficient method for fragment-based lead discovery” (Journal of Enzyme Inhibition and Medicinal Chemistry, 2019).
# What was measured:
# [1] = target: T1, human serum albumin (HSA) (Homo sapiens, UniProt P02768); test: Dissociation constant of fragment bound to HSA; assay type: binding
# T1 construct: purchased Sigma A3782
# [2] = target: T1, human serum albumin (HSA); test: WaterLOGSY NMR epitope mapping, HSA; assay type: binding; conditions: all protons, bound to HSA, 1.5 s mixing time, normalised
# Procedure: (§1) NMR samples for STD experiments consisted of 400 µM fragment in 0.5% DMSO-d6 and 10% D2O (v/v) together with a protein concentration of 20 µM for peroxiredoxin and HSP90, 10 µM for Bcl-xL, 15 µM for Mcl-1, 2 µM for glycogen phosphorylase, and 5 µM for HSA.
# (§2) Standard 1 D, STD, and WaterLOGSY NMR spectra were acquired at 20 °C with an Agilent Inova 600 MHz NMR spectrometer, equipped with a room temperature 5 mm triple-resonance inverse probe with z-axis field gradient and a Bruker 600 MHz NMR spectrometer, equipped with a Z-gradient cryoprobe.
# (§3) WaterLOGSY mixing time was 1.5 s, and additional experiments were performed with 0.75 s and 0.25 s mixing time. Both STD and WaterLOGSY spectra were recorded for each sample. WaterLOGSY spectra in the absence of protein receptor were recorded with 400 µM compound. All the NMR experiments were performed at 293 K with excitation sculpting to suppress peaks from water. […] The STD factors were calculated according to the following equation: R=(ISTD/I1D)×100) were ISTD and I1D are the intensity of proton resonances of the STD and the 1 D proton spectra, respectively. […]
# (§4) This is due to the WaterLOGSY mechanism that involves magnetisation transfer from bulk water. Therefore, we propose the following protocol to quantitatively evaluate the WaterLOGSY signals of the protons of a compound bound to its receptor. […]
# [3] = target: T2, N-terminal domain of HSP90 (Homo sapiens, UniProt P07900); test: WaterLOGSY NMR epitope mapping, HSP90; assay type: binding; conditions: proton H1, bound to HSP90, 1.5 s mixing time, normalised
# T2 construct: the N-terminal domain (9–236) of HSP-90 were produced and purified; made in house; host or cells: Escherichia coli
# Procedure: as §1, §2, §3, §4
# [4] = target: N-terminal domain (9–236) of HSP90; set-up: method as in PMID 20718493; conditions: bound to HSP90; cited from earlier work
# [5] = target: T3, glycogen phosphorylase (GP) (Oryctolagus cuniculus, UniProt P00489); test: Dissociation constant of fragment bound to GP; assay type: binding, rabbit; conditions: unpublished data
# T3 sequence (P00489 1-843): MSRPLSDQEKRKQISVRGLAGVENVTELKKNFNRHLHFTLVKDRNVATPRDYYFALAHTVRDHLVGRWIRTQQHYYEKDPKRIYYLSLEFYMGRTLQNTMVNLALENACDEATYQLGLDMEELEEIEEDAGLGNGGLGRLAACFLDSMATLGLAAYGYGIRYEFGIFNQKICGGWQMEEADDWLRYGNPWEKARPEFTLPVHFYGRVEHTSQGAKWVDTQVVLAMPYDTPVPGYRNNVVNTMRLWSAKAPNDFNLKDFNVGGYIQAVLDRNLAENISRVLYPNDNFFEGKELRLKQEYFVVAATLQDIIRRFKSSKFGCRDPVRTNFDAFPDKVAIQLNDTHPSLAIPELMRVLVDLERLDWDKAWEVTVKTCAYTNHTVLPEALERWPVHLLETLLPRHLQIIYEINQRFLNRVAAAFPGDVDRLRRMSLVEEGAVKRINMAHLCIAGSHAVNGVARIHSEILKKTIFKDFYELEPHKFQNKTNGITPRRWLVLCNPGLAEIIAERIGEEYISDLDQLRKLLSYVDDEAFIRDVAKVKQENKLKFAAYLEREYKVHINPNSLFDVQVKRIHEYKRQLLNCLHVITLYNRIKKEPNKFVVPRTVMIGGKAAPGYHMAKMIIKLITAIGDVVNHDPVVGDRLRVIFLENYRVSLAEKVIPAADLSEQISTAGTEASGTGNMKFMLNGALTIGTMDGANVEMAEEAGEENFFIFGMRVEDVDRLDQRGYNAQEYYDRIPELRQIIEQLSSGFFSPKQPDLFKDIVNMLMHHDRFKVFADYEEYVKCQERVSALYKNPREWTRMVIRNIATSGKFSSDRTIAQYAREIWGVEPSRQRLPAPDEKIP
# Bcl-xL = target: Bcl-xL; set-up: method as in PMID 16420051; conditions: bound to Bcl-xL; cited from earlier work
# T1 sequence (P02768 25-609): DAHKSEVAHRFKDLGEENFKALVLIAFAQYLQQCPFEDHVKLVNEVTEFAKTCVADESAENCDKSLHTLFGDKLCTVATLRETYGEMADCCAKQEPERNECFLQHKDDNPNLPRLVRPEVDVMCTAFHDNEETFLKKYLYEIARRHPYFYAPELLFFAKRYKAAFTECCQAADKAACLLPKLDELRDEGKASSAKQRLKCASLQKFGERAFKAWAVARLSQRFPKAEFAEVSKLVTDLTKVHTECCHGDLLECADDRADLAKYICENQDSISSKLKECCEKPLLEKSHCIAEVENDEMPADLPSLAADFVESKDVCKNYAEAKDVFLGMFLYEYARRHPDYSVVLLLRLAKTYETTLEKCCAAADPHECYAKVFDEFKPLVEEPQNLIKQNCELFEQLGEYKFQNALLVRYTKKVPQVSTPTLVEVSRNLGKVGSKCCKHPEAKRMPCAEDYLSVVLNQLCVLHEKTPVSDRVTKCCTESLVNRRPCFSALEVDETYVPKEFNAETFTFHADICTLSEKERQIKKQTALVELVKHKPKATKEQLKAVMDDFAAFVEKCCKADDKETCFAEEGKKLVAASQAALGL
smiles,measurement,setting,value
"Cc1ccc(O)c(O)c1 [Compound 1, 4-methylcatechol]",Kd,[1],> 1000 µM
same,WLOGSY factor,[2],100%
"CCN(CC)C(=O)c1ccc(O)c(OC)c1 [Compound 4, N,N-diethylvanillamide]",WLOGSY factor,[3],10%
same,Kd,[4],790 µM
"O=C(O)c1ccc(Oc2ccccc2)cc1 [Compound 6, 4-phenoxybenzoic acid]",Kd,[5],> 1000 µM
"O=C(O)c1ccc(-c2ccc(F)cc2)cc1 [Compound 5, 4′-fluoro-[1,1′-biphenyl]-4-carboxylic acid]",Kd,Bcl-xL,300 µM
